Values quoted from earlier work as cited in patent publication US4894388A, “Glycosidase inhibitors and use thereof” (priority 1988, dated 1990).

Tested on: human immunodeficiency virus (HIV)
Conditions: background literature; cited from earlier work

Row | SMILES | inhibition of HIV synctium formation and virus replication (in words)
1 | O[C@H]1[C@H](O)[C@@H](O)CN2CC[C@H](O)[C@H]12 [castanospermine] | found to inhibit human immunodeficiency virus (HIV) synctium formation and virus replication
2 | OCC1NC(CO)C(O)C1O (stereo not drawn) [2,5-dihydroxymethyl-3,4-dihydroxypyrrolidine] | found to inhibit human immunodeficiency virus (HIV) synctium formation and virus replication
3 | OC[C@H]1NC[C@H](O)[C@@H](O)[C@@H]1O [1-deoxynojirimycin (DNJ), 1-deoxynojirimycin] | found to inhibit human immunodeficiency virus (HIV) synctium formation and virus replication
